According to patent US6300519A, “Antivirally active heterocyclic azahexane derivatives” (Novartis Finance Corporation, priority 1996, dated 2001):

Legend:
[1] = test system: resistant variant (45I,76F strain)
Description: (§1) By way of PCR-supported mutagenesis and cloning, HIV-1 protease mutants are generated that are based on the infectious clone pNL4-3 (freely available via the "NIH AIDS reference and reagent program", the original reference is A. Adachi et al. J. Virol (1986) 59, 284-91--but it can, of course, be any other HIV clone, or even clinical material, provided that comparability is ensured). […] The cloned fragments are, for example, only 500 base pairs in length, all of the remainder being unchanged. By using mutations in always the same clone, direct comparability is ensured, which would rot be the case in a direct comparison of clinical samples or of different HIV clones.
(§2) That system is used as a transient DNA transfection system for tests:
(§3) Instead of the strains mentioned, there may be used any human T4-positive cells, such as the HeLa T4 cells, deposited under that name by Richard Axel and Paul Maddon in "NIH AIDS reference and reagent program" and obtainable via that source.

[2] = test system: 46I/47V/50V (VX478) strain; experiment: Transient DNA transfection assay, strain 46I/47V/50V (VX478); type: cell-based, HIV-1; conditions: 1 nM
Description: as §1, §2, §3

For `COC(=O)N[C@H](C(=O)N[C@@H](Cc1ccccc1)[C@@H](O)CN(Cc1ccc(-c2ccccn2)cc1)NC(=O)[C@@H](NC(=O)OC)C(C)(C)C)C(C)(C)C` [Example 46, 1-[4-(Pyridin-2-yl)-phenyl]-4(S)-hydroxy-5(S)-2,5-bis[N-(N-methoxycarbonyl-(L)-tert-leucyl)amino]-6-phenyl-2-azahexane], the “activity against a resistant variant (45I,76F strain) compared with saquinavir, indinavir, ritonavir” value [1] was “comparable with saquinavir and better than that of indinavir (Merck & Co., Inc., see below) or ritonavir” and the “activity against strain 46I/47V/50V (VX478) compared with saquinavir, ritonavir and indinavir” value [2] was “more potent (not quantified) than that of saquinavir, ritonavir and indinavir”.
